Measurements reported in patent US9555061B2, “Synthesis and analysis of compounds capable of inducing differentiation of human mesenchymal stems cells into hepatocytes” (National University Corporation Torrori University, priority 2011, dated 2017).

How the values were obtained:
Assay type in all cases: cell-based, human
[1] = system: Wnt/β-catenin signaling pathway; test: Luciferase assay in sorted bone marrow-derived mesenchymal stem cells; conditions: 40 or 45 μM; 8 days after the treatment
Method: Human bone marrow mononuclear cells that had been purchased from Lonza Inc. were suspended in 1 ml of Hanks' balanced salt solution (HBSS, Gibco, Life Technologies Corp.) supplemented with a 100-fold diluted APC-labeled anti-CD90 antibody, a 407-fold diluted PE-labeled anti-CD271 antibody, and 2% fetal bovine serum (FBS, Defined, Thermo Fisher Scientific Inc.), and were stained on ice for 30 min. A flow cytometer (MoFlo XDP, Beckman Coulter Inc.) was used to selectively separate mesenchymal stem cells. The resulting cells were cultured in Dulbecco's Modified Eagle's Medium (Low Glucose, Gibco, Life Technologies Corp.) containing 20% FBS, 100 U/ml penicillin, […] streptomycin (Nacalai Tesque), and 20 ng/ml basic fibroblast growth factor (TRANS GENIC INC., Ltd.) on a 35-mm dish under conditions at 37° C. and 5% CO2. The medium was changed every 4 days. After colonies were formed, the cells were detached using a 0.025% trypsin/1 mM EDTA solution (Nacalai Tesque), split on a 100-mm dish, and cultured under conditions at 37° C. and 5% CO2. Then, the cells which were kept 70 to 80% confluent were detached using trypsin treatment. These cells in one dish were divided into four dishes for passage.
Cells were seeded on a 96-well plate at a cell density of 5.0×10^3 cells/cm^2. […]

[2] = system: bone marrow-derived mesenchymal stem cells; test: RT-PCR of albumin in sorted bone marrow-derived mesenchymal stem cells; conditions: 45 μM
Method: Cells were seeded on a 6-well plate at a cell density of 1.8×10^4 cells/cm^2. This day was designated as day 0. At day 1 corresponding to the next day, the medium was changed to a medium containing IC-2 (at a final concentration of 25, 35, or 45 μM) or 0.1% DMSO. At day 4, the medium was changed in a manner similar to that at day 1, and at day 8, the cells were reseeded and subcultured at a cell density of 1.8×10^4 cells/cm^2. After that, the medium was replaced twice during 8 days, and the cells were subcultured every 8 days. Then, the similar operation was carried out until day 24. At days 8, 16, and 24 after the initiation of the induction, TRIzol (Invitrogen) was used to extract total RNA according to the attached instruction. After the extraction, deoxyribonuclease (Nippon Gene) was added, and the mixture was incubated at 37° C. for 30 min to remove DNA. In a reverse transcription reaction, SuperScriptII Reverse Transcriptase (Invitrogen) and Oligo(dT)15 primer were added to 1 μg of RNA to convert it into cDNA. In a RT-PCR method, the cDNA was diluted by 5 times. Next, 1 μl of the cDNA was used as a template. Then, rTaq DNA polymerase (TOYOBO) was used to amplify the cDNA. MQ water was used as a negative control. cDNA from Huh-7 or UE7T-13 cells was used as a positive control.
In order to determine hepatocyte differentiation markers, levels of expression of albumin were measured. […]

[3] = system: clinical specimen-derived mesenchymal stem cells; test: Immunofluorescence staining in clinical specimen-derived mesenchymal stem cells; conditions: day 8; PN-3-13 20 μM, IC-2 40 μM
Method: A cover glass that had been sterilized with 100% ethanol was placed on a 12-well plate. Cells were seeded on the cover glass at a cell density of 1.8×10^4 cells/cm^2. This day was designated as day 0. At day 1 corresponding to the next day, the medium was changed to a medium containing HC-2 (at a final concentration of 20 μM), PN-3-13 (at a final concentration of 20 μM), IC-2 (at a final concentration of 40 μM), or 0.1% DMSO. At day 4, the medium was changed in a manner similar to that at day 1. At day 8, the culture medium was removed and the cells were washed twice with PBS. Then, in order to perform immunostaining of albumin, the cells were fixed for 20 min with 4% paraformaldehyde (Nacalai Tesque) containing 8% sucrose (Wako Pure Chemical Industries, Ltd.). For immunostaining of C/EBPα or CYP1A1, the cells were fixed for 20 min with 4% paraformaldehyde. After that, the cells were permeated with 0.2% Triton X-100 (Wako Pure Chemical Industries, Ltd.) for 10 min and were then blocked in 3% BSA (Nacalai Tesque) at room temperature for 30 min without shaking.
After the primary antibody reaction, the cells were washed with 0.1% BSA/PBS. […] The cells were incubated with each antibody, and were kept in a dark condition at room temperature for 1 h to carry out a secondary antibody reaction. Their nuclei were stained with DAPI (Cell Signaling Technology Inc.). […]

[4] = system: CD90+CD271+ bone marrow-derived mesenchymal stem cells; test: Urea assay in CD90+CD271+ bone marrow-derived mesenchymal stem cells; conditions: hexachlorophene 4 μM, PN-3-13 20 μM, IC-2 40 μM; day 8 plus 96 h ammonium chloride
Method: A urea assay was performed according to the following protocol. CD90^+CD271^+ bone marrow-derived mesenchymal stem cells were seeded on a 24-well plate at a cell density of 1.8×10^4 cells/cm^2. This day was designated as day 0. At day 1 corresponding to the next day, each medium was changed to a medium containing hexachlorophene (at a final concentration of 4 μM), HC-2 (at a final concentration of 20 μM), PN-3-13 (at a final concentration of 20 μM), IC-2 (at a final concentration of 40 μM), or 0.1% DMSO. At day 4, the medium was changed in a manner similar to that at day 1, and the cells were cultured until day 8. At day 8, the medium was removed, and replaced with a medium containing ammonium chloride (Nacalai Tesque) at a final concentration of 5 mM. The cells were further cultured for 96 h. At 96 h after the addition of ammonium chloride, levels of urea in the medium were determined using a QuantiChrom Urea Assay Kit (BioAssay Systems) according to the attached protocol by reading the absorbance at a wavelength of 520 nm with a microplate reader. The levels of urea were calculated based on a standard sample according to the attached calculation method. As a negative control for the urea assay, used were CD90^+CD271^+ bone marrow-derived mesenchymal stem cells that were seeded one day before the day of the immunostaining and were not subjected to the differentiation induction.

(6S,9aS)-6-phenyl-8-naphthalen-1-ylmethyl-4,7-dioxo-hexahydro-pyrazino[1,2-a]pyrimidine-1-carbocylic acid benzylamide [IC-2]
inhibition of the Wnt/β-catenin signaling pathway (luciferase activity) [1]: significantly inhibited | albumin expression compared with 0.1% DMSO [2]: remarkable increase | levels of expression of albumin, C/EBPα, and CYP1A1 compared with negative control (0.1% DMSO) [3]: apparently increased | cellular urea synthesis compared with negative control (0.1% DMSO) [4]: apparent increase
